According to patent publication US20210330611A1, “THERAPY FOR NEUROLOGICAL DISEASES/DISORDERS” (priority 2020, published 2021):
Where a name gives a salt, the structure may show the parent alone. Read-outs that look alike come from different tables or passages of the source.

Columns and labels:
[1] = test system: fibrin-induced microglia activation; experiment: Image-based assay of fibrin-induced microglia activation (HTS and dose response); format: cell-based, rat; settings: primary microglia HTS, fibrin stimulation, compounds at 10 μM; for inhibition at 10 µM: Rattus norvegicus, Microglia, read-out: Fibrin % inhibition
primary rat microglia [2] = test system: primary rat microglia
[3] = test system: LPS-induced microglia activation; experiment: Image-based assay of LPS-induced microglia activation (HTS and dose response); format: cell-based, rat; settings: primary microglia HTS, LPS stimulation, compounds at 10 μM; for inhibition at 10 µM: Rattus norvegicus, Microglia, read-out: LPS % inhibition
[4] = test system: fibrin- and LPS-induced microglia activation; experiment: cells; format: cell-based, rat; settings: HTS at 10 μM
primary rat microglia [5] = experiment: Cell toxicity (dead cells, size <150 μm2) in coated fibrin (cFib) assay; settings: primary microglia HTS, fibrin assay, dead cells (size <150 μm2);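 also: share of dead cells sized under 150 µm2 at 10 µM in fibrin-stimulated microglia HTS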
[6] = quadrant by fibrin and LPS inhibition
[7] = classification by fibrin and LPS inhibition

Row | Compound | inhibition at 10 µM [1] | LPS % cell toxicity (primary rat microglia [2]; rat) | inhibition at 10 µM [3] | Quadrant (FIG. 5b) [4, 6] | Fibrin % cell toxicity (primary rat microglia [5]) | Fibrin % inhibition [1] | LPS % cell toxicity (primary rat microglia [2]) | LPS % inhibition [3] | Quadrant (FIG. 5b) [4, 7] | Fibrin % cell toxicity (primary rat microglia [5]; compounds at 10 μM)
1 | CCOC(=O)OC(C)OC(=O)[C@@H]1N2C(=O)[C@@H](NC(=O)[C@H](N)c3ccccc3)[C@H]2SC1(C)C (stereo partly drawn) [Bacampicillin Hydrochloride] | -12% | 0% | 8% | Q4 | 1% |  |  |  |  | 
2 | O=C(O)CCNC(=O)c1ccc(/N=N/c2ccc(O)c(C(=O)O)c2)cc1 [Balsalazide] | -2% | 0% | 11% | Q4 | 0% |  |  |  |  | 
3 | CCC1(CC)C(=O)NC(=O)NC1=O [Barbital] | -5% | 0% | 11% | Q4 | 0% |  |  |  |  | 
4 | NC[C@H]1O[C@H](O[C@H]2[C@H](O)[C@@H](O[C@H]3O[C@H](CO)[C@@H](O)[C@H](N)[C@H]3O)[C@H](N)C[C@@H]2N)[C@H](N)[C@@H](O)[C@@H]1O.O=S(=O)(O)O [Becanamycin Sulfate, Bekanamycin Sulfate] |  |  |  | Q4 | 1% | −10% | 0% | 16% |  | 
5 | CCC(=O)OCC(=O)[C@@]1(OC(=O)CC)[C@@H](C)C[C@H]2[C@@H]3CCC4=CC(=O)C=C[C@]4(C)[C@@]3(Cl)[C@@H](O)C[C@@]21C [Beclomethasone Dipropionate] | 7% | 1% | 28% | Q4 | 1% |  |  |  |  | 
6 | C[C@H]1C[C@H]2[C@@H]3CCC4=CC(=O)C=C[C@]4(C)[C@@]3(Cl)[C@@H](O)C[C@]2(C)[C@@]1(O)C(=O)CO [Beclomethasone] |  |  |  | Q4 | 1% | −8% | 0% | −3% |  | 
7 | CCCCC(CC)COc1ccc(-c2nc(-c3ccc(OC)cc3)nc(-c3ccc(OCC(CC)CCCC)cc3O)n2)c(O)c1 (stereo not drawn) [Bemotrizinol] |  |  |  | Q4 | 1% | −23% | 0% | 16% |  | 
8 | CCOC(=O)[C@H](CCc1ccccc1)N[C@H]1CCc2ccccc2N(CC(=O)O)C1=O [Benazepril] | 0% | 1% | 26% | Q4 | 1% |  |  |  |  | 
9 | NS(=O)(=O)c1cc2c(cc1C(F)(F)F)NC(Cc1ccccc1)NS2(=O)=O (stereo not drawn) [Bendrofumethiazide, Bendroflumethiazide] |  |  |  | Q4 | 1% | −15% | 1% | 12% |  | 
10 | CC(Cc1cccc(C(F)(F)F)c1)NCCOC(=O)c1ccccc1 (stereo not drawn) [Benfluorex] | -26% | 0% | -3% | Q4 | 1% |  |  |  |  | 
11 | C/C(=C(\CCOP(=O)(O)O)SC(=O)c1ccccc1)N(C=O)Cc1cnc(C)nc1N [Benfotiamine] | -47% | 0% | 18% | Q4 | 0% |  |  |  |  | 
12 | O=C(CNC(=O)c1ccc(Cl)cc1)NO [Benurestat] |  |  |  | Q4 | 1% | 6% | 1% | 22% |  | 
13 | CCc1oc2ccccc2c1C(=O)c1cc(Br)c(O)c(Br)c1 [Benzbromarone] | 0% | 1% | 24% | Q4 | 0% |  |  |  |  | 
14 | CCCCNc1ccc(C(=O)OCCOCCOCCOCCOCCOCCOCCOCCOCCOC)cc1 [Benzonatate] | 0% | 0% | 12% | Q4 | 1% |  |  |  |  | 
15 | O=C(Oc1cccc2cccnc12)c1ccccc1 [Benzoxiquine] | -2% | 0% | 14% | Q4 | 1% |  |  |  |  | 
16 | NS(=O)(=O)c1cc2c(cc1Cl)N=C(CSCc1ccccc1)NS2(=O)=O [Benzthiazide] | -8% | 0% | 7% | Q4 | 1% |  |  |  |  | 
17 | CN1CC(=O)NC1=N [Creatinine] | -3% | 0% | 10% |  |  |  |  |  | Q4 | 1%
18 | CC(=O)Oc1c(C)cccc1C(=O)O [Cresopyrine, Cresopirine] |  |  |  |  |  | 13% | 1% | 15% | Q4 | 1%

Row | Compound | inhibition at 10 µM [1] | LPS % cell toxicity (primary rat microglia [2]; rat) | inhibition at 10 µM [3] | Quadrant (FIG. 5b) [4, 6] | Fibrin % cell toxicity (primary rat microglia [5]) | Fibrin % inhibition [1] | LPS % cell toxicity (primary rat microglia [2]) | LPS % inhibition [3] | Quadrant (FIG. 5b) [4, 7] | Fibrin % cell toxicity (primary rat microglia [5]; compounds at 10 μM)
19 | O=C(O)c1cc(=O)c2c(OCC(O)COc3cccc4oc(C(=O)O)cc(=O)c34)cccc2o1 [Cromoglicic acid] | -28% | 0% | 8% |  |  |  |  |  | Q4 | 0%
20 | FC(F)(Cl)C(F)(F)Cl [Cryoflurane] |  |  |  |  |  | −4% | 0% | 12% | Q4 | 1%
21 | CC1CC(OC(=O)C(O)c2ccccc2)CC(C)(C)C1 (stereo not drawn) [Cyclandelate] | -57% | 0% | 4% |  |  |  |  |  | Q4 | 0%
22 | CN1CCN(C(c2ccccc2)c2ccccc2)CC1 [Cyclizine] | -23% | 1% | 34% |  |  |  |  |  | Q4 | 0%
23 | CN(C)CCOC(=O)C(c1ccccc1)C1(O)CCCC1 (stereo not drawn) [Cyclopentolate] | -8% | 0% | 9% |  |  |  |  |  | Q4 | 1%
24 | N[C@@H]1CON=C1O [Cycloserine] | -4% | 0% | 19% |  |  |  |  |  | Q4 | 0%
25 | Nc1nc(N)nc(NC2CC2)n1 [Cyromazine] | -9% | 0% | 9% |  |  |  |  |  | Q4 | 1%
26 | N[C@H](Cc1ccccc1)C(=O)O [D-phenylalanine] | 1% | 0% | 23% |  |  |  |  |  | Q4 | 1%
27 | CCCCCCOC(=O)NC(=N)c1ccc(NCc2nc3cc(C(=O)N(CCC(=O)OCC)c4ccccn4)ccc3n2C)cc1 [Dabigatran etexilate] | 3% | 0% | 9% |  |  |  |  |  | Q4 | 0%
28 | Nc1ccncc1 [Dalfampridine] | 8% | 0% | 2% |  |  |  |  |  | Q4 | 2%
29 | O=C1c2cccc(O)c2C(=O)c2c(O)cccc21 [Dantron, Danthron] |  |  |  |  |  | −9% | 0% | 13% | Q4 | 0%
30 | Cc1ccccc1N1CCN(CCc2nnc3n2CCCC3)CC1 [Dapiprazole] | -9% | 0% | 14% |  |  |  |  |  | Q4 | 1%
31 | CCCCCCCCCC(=O)N[C@@H](Cc1c[nH]c2ccccc12)C(=O)N[C@@H](CC(N)=O)C(=O)N[C@@H](CC(=O)O)C(=O)N[C@@H]1C(=O)NCC(=O)N[C@@H](CCCN)C(=O)N[C@@H](CC(=O)O)C(=O)N[C@H](C)C(=O)N[C@@H](CC(=O)O)C(=O)NCC(=O)N[C@H](CO)C(=O)N[C@@H]([C@H](C)CC(=O)O)C(=O)N[C@@H](CC(=O)c2ccccc2N)C(=O)O[C@@H]1C [Daptomycin (5 Millimolar/dmso)] |  |  |  |  |  | −6% | 0% | 17% | Q4 | 1%
32 | N=C(N)N1CCc2ccccc2C1 [Debrisoquin] | 8% | 0% | 17% |  |  |  |  |  | Q4 | 1%
33 | C[N+](C)(C)CCCCCCCCCC[N+](C)(C)C [Decamethonium] | 1% | 0% | 17% |  |  |  |  |  | Q4 | 0%
34 | CCCCCCCCCCOc1cc2c(O)c(C(=O)OCC)cnc2cc1OCC [Decoquinate] | 7% | 1% | 20% |  |  |  |  |  | Q4 | 1%
35 | CCN(CC)C(=O)c1cccc(C)c1 [Deet, Diethyltoluamide] |  |  |  |  |  | −38% | 0% | 6% | Q4 | 0%
36 | CC(=O)N(O)CCCCCNC(=O)CCC(=O)N(O)CCCCCNC(=O)CCC(=O)N(O)CCCCCN [Deferoxamine] | 2% | 0% | 32% |  |  |  |  |  | Q4 | 1%
